The values that follow are results of earlier work, collected in patent US11279710B2, “Processes for preparing ACC inhibitors and solid forms thereof” (Gilead Sciences, Inc., priority 2017, dated 2022).

For one series, the system named is ACC2. Particulars: ACC2 isolated from rat, mouse, monkey and human.
For series [1] the following is noted: rats, acute (46 min) treatment.
The target of series [2] is T1, propionyl-CoA carboxylase (Homo sapiens, UniProt P05165+P05166).
T1 sequence (P05165 53-728): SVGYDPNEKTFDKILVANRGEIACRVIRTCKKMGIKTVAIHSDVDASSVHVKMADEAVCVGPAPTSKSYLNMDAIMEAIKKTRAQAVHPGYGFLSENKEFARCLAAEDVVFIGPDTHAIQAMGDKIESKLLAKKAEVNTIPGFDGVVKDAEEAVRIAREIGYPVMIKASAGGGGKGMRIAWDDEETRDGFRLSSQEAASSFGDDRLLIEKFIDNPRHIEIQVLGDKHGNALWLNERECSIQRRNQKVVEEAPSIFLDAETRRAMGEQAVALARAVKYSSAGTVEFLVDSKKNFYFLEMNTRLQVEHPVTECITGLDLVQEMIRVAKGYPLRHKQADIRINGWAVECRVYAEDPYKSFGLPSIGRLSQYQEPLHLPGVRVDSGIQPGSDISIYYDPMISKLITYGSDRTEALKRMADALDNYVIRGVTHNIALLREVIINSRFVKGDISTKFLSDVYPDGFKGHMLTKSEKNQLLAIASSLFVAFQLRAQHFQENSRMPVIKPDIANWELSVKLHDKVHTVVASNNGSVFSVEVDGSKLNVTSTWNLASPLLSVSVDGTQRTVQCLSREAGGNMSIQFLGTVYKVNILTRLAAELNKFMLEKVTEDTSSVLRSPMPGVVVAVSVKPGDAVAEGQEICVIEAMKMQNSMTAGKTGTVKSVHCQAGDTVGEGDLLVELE
T1 sequence (P05166 29-539): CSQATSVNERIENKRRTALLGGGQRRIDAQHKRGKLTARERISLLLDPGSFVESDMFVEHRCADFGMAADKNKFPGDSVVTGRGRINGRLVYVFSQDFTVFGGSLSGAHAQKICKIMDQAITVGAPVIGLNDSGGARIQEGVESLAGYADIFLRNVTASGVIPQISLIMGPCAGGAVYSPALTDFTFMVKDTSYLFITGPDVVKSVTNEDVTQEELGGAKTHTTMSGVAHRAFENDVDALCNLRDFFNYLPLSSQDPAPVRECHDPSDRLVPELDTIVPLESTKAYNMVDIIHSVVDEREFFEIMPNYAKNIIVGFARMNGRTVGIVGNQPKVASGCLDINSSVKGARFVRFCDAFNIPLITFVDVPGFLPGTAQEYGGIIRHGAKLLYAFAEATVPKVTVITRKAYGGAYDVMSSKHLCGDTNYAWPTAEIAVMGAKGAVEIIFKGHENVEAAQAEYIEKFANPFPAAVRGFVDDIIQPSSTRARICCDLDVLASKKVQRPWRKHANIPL

The conditions of series [3]: sucrose-fed rats, three weeks.
For series [4], the system named is insulin-resistant rat muscle tissue. Particulars: within 30 min of compound administration.
In a further series the test system is ACC1. Particulars: ACC1 isolated from rat, mouse, monkey and human.
For a further series, the target named is T2, pyruvate carboxylase (Homo sapiens, UniProt P11498).
T2 sequence (P11498 21-1178): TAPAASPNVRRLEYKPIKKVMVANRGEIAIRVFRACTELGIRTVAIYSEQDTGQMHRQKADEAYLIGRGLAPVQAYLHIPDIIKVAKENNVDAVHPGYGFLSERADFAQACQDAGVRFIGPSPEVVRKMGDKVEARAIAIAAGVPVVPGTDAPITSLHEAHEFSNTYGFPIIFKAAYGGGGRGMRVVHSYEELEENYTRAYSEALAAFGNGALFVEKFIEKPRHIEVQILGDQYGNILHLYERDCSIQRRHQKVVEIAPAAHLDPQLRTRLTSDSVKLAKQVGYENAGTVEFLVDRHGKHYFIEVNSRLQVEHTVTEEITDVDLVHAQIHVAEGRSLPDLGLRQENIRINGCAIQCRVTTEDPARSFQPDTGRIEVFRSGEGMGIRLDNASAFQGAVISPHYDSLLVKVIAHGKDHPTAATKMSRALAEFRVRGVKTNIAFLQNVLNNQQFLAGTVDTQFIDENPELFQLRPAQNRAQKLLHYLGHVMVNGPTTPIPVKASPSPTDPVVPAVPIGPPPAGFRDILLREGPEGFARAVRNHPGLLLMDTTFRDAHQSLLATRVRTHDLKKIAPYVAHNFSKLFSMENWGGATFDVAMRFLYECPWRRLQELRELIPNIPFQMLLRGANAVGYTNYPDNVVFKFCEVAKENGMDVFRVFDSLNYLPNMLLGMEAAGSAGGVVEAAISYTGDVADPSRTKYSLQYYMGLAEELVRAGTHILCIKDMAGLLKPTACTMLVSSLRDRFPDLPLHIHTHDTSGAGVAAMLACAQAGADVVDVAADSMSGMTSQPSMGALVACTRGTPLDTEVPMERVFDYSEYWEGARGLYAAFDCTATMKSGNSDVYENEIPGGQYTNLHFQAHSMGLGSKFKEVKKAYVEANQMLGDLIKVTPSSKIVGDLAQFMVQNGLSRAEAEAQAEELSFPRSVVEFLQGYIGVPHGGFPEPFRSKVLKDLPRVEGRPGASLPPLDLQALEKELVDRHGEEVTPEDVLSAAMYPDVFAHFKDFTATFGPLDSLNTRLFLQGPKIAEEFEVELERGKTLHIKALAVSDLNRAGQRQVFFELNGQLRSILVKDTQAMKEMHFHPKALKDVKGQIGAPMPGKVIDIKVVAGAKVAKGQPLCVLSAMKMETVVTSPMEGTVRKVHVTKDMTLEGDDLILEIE

Turning to `O=C(c1c2ccccc2cc2ccccc12)N1CCC(N2CCC[C@@H](C(=O)N3CCOCC3)C2)CC1` [CP-640186], the IC50 (as a rule, the concentration that inhibits the measured activity by half) in the series with ACC2 is ~60 nM. The FA oxidation result with rat muscle slices is given as “stimulated”. In addition, in [1], the FA clearance result was “stimulated” and the glucose clearance entry is listed as “without decreasing”. In addition, in the series on Hep-G2 cells, the CPT-I activity result is given as “increased”, the FA synthesis result was “reduced”, the apoA1 secretion result was “without affecting” and the apoB secretion entry is “reduced”. In the series with Hep-G2 cells, the cholesterol synthesis entry is recorded as “without affecting”; the “triglyceride synthesis and secretion” value was “reduced”. Further, the “inhibition of propionyl-CoA carboxylase” value in series [2] is “without inhibiting”. Further, where the note is “experimental animals”, the “liver and adipose tissue FA synthesis” value was “reduced”; the “whole body FA oxidation” value was “increased”. Also, where the note is “lipogenic and oxidative tissues, fed and fasted state”, the malonyl-CoA concentration result was “acutely reduced”. For the same compound, in series [3], the “hyperinsulinemia produced by the high sucrose diet” value is “reduced”, the insulin sensitivity result is reported as “improved”, the lean body mass result was “without reducing” and the leptin levels entry is given as “reduced”. Also, in series [3], the “liver, muscle and adipose triglycerides” value is “time- and dose-dependently reduced”; the plasma glucose levels result is given as “without changing”. Further, the body weight entry in [3] (due to selective fat reduction) is listed as “reduced”. In addition, the insulin sensitivity entry in [4] is on record as “stimulation”. The IC50 with ACC1 was ~60 nM. The FA oxidation result in the series with C2C12 cells is listed as “stimulated”. Besides, the “inhibition of pyruvate carboxylase” value at pyruvate carboxylase is given as “without inhibiting”.

In the case of `COc1ccccc1[C@H](Cn1c(=O)n(C(C)(C)C(=O)O)c(=O)c2c(C)c(-c3ncco3)sc21)OC1CCOCC1` [Compound I, (R)-2-(1-(2-(2-methoxyphenyl)-2-((tetrahydro-2H-pyran-4-yl)oxy)ethyl)-5-methyl-6-(oxazol-2-yl)-2,4-dioxo-1,2-dihydrothieno[2,3-d]pyrimidin-3(4H)-yl)-2-methylpropanoic acid], the ACC inhibitory activity result in the series with ACC was “exhibits ACC inhibitory activity”.

Turning to `CO[C@H]1CCCC[C@@H](c2ccccc2)OC(=O)[C@@H](C)[C@@]2(O)O[C@H]([C@@H](C)[C@H](O)[C@H]2OC)[C@@H](C)/C=C/[C@H]1OC` [soraphen A], in the series with human liposarcoma, the lipogenesis entry is recorded as “inhibited” and the tumor cell growth entry is “inhibited”.
